According to ChEMBL document CHEMBL1201862, “PubChem BioAssay data set” (2004):
The source made the active and inactive calls.

Columns and labels:
[1] = molecular target: NACHT, LRR and PYD domains-containing protein 3 (Homo sapiens, UniProt Q96P20); assay: NALP3 inhibitors in yeast, dose response, luminescent (AID 488799); assay type: functional
Caspase-3 = molecular target: T1, Caspase-3 (Homo sapiens, UniProt P42574); assay type: functional;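 also: Dose-response selectivity test against caspase-3 for candidate inhibitors of sentrin-specific proteases (SENPs)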
T1 sequence (P42574 whole entry): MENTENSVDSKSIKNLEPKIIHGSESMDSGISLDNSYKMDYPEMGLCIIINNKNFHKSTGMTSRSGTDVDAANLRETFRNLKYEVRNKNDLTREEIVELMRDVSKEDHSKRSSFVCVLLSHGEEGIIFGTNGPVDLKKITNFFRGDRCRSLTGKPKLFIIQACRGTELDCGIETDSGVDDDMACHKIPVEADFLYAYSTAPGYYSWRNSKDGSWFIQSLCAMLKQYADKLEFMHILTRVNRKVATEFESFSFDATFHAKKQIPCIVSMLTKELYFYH

[2] = NIH-3T3 fibroblast cytotoxicity, dose response, cytotoxicity control, cell-based, fluorescence, Alamar Blue, secondary assay (AID 2327); assay type: functional;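 also: NIH-3T3 mouse fibroblasts cultured with fluconazole at 8 µg/mL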
[3] = C. albicans growth with fluconazole, confirmation, fluorescence, retest (AID 2467); assay type: functional, cell-based
[4] = molecular target: Serine/threonine-protein phosphatase (Candida dubliniensis (strain CD36 / CBS 7987 / NCPF 3949 / NRRLY-17841) (Yeast), UniProt B9W6M3); assay: Fluorescence Cell-Based Secondary Assay to Identify Inhibitors of Calcineurin. [Related pubchem assays (depositor defined):AID1979, AID2007]; assay type: functional
INS1 = assay: beta cell apoptosis inhibitors, cytokine rescue, dose response, luminescence, retest (AID 449756); assay type: functional, cell-based; conditions: Rattus norvegicus;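 also: cell death triggered by IL-1 beta plus TNF-alpha plus IFN-gamma mixture; protective hits raise ATP signal compared with cytokine alone wells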
[5] = molecular target: ATP-dependent molecular chaperone HSP82 (Candida albicans (strain WO-1) (Yeast), UniProt C4YTQ8); assay: loss of DOC-induced GRE-beta-galactosidase reporter signal, dose response, Hsp90 inhibitor project, S. cerevisiae, luminescence (AID 2400); assay type: functional, cell-based;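 also: beta-galactosidase luminescence from glucocorticoid response element reporter as proxy for Hsp90 function; inhibitor potency where signal loss means Hsp90 inhibition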
[6] = Luminescence Cell-Based Dose Response HTS to Identify Activators of Luciferase Translation or Activity in H4 […] Cells. [Related pubchem assays: 1829 (Project Summary), 1814 (Primary HTS)]; assay type: functional
[7] = THP-1 cell cytotoxicity, dose response, cytotoxicity control for non-replicating M. tuberculosis project (AID 489025); assay type: functional
[8] = molecular target: SWI/SNF-related matrix-associated actin-dependent regulator of chromatin subfamily A member 2 (Homo sapiens, UniProt P51531); assay: Luminescence-based cell-based high throughput dose response assay to identify activators of the function of SWI/SNF related, matrix associated, actin dependent regulator of chromatin, subfamily a, member 2 (SMARCA2, BRM).; assay type: functional
[9] = molecular target: Tyrosine-protein kinase JAK2 (Homo sapiens, UniProt O60674); assay type: functional;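 also: JAK2 tested as one member of a kinase panel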
[10] = molecular target: cGMP-dependent protein kinase 1 (Homo sapiens, UniProt Q13976); assay type: functional;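 also: value from a kinome panel screen with PRKG1 as the panel member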
[11] = molecular target: Serine/threonine-protein kinase PLK4 (Homo sapiens, UniProt O00444); assay type: functional;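 also: PLK4 measured as one member of a kinome-wide kinase profiling panel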
[12] = molecular target: Serine/threonine-protein kinase D2 (Homo sapiens, UniProt Q9BZL6); assay type: functional;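 also: measured against PRKD2 as one member of a kinome-wide kinase profiling panel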
[13] = molecular target: Calcium/calmodulin-dependent protein kinase type II subunit gamma (Homo sapiens, UniProt Q13555); assay type: functional
[14] = molecular target: Tyrosine-protein kinase SYK (Homo sapiens, UniProt P43405); assay type: functional
[15] = molecular target: Cyclin-dependent kinase 2 (Homo sapiens, UniProt P24941); assay type: functional;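 also: CDK2 measured as one member of a broad kinome profiling panel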
[16] = molecular target: Serine/threonine-protein kinase pim-1 (Homo sapiens, UniProt P11309); assay type: functional
[17] = molecular target: Cell division cycle 7-related protein kinase (Homo sapiens, UniProt O00311); assay type: functional;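 also: value obtained from a kinome-wide kinase panel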
[18] = molecular target: Casein kinase II subunit alpha (Homo sapiens, UniProt P68400); assay type: functional
[19] = molecular target: Serine/threonine-protein kinase PAK 4 (Homo sapiens, UniProt O96013); assay type: functional;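 also: value obtained within a kinome profiling panel in which PAK4 was one of the panel members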
[20] = molecular target: Ribosomal protein S6 kinase alpha-5 (Homo sapiens, UniProt O75582); assay type: functional
[21] = molecular target: Tyrosine-protein kinase Lyn (Homo sapiens, UniProt P07948); assay type: functional;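 also: lyn as one member of a kinase panel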
[22] = molecular target: Serine/threonine-protein kinase TAO1 (Homo sapiens, UniProt Q7L7X3); assay type: functional
[23] = molecular target: High affinity nerve growth factor receptor (Homo sapiens, UniProt P04629); assay type: functional;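 also: NTRK1 tested as one member of a kinome-wide profiling panel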
[24] = molecular target: Protein kinase C gamma type (Homo sapiens, UniProt P05129); assay type: functional
[25] = molecular target: Proto-oncogene tyrosine-protein kinase Src (Homo sapiens, UniProt P12931); assay type: functional;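 also: SRC entry within a kinome-wide kinase profiling panel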
[26] = molecular target: Mitogen-activated protein kinase kinase kinase kinase 2 (Homo sapiens, UniProt Q12851); assay type: functional;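 also: measured as one member of a kinome-wide kinase panel, with MAP4K2 as the panel entry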
Ephrin type-A receptor 2 = Ephrin type-A receptor 2 (Homo sapiens, UniProt P29317); assay type: functional;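 also: EPHA2 tested as one member of a kinome-wide kinase panel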
[27] = molecular target: Mitogen-activated protein kinase 1 (Homo sapiens, UniProt P28482); assay type: functional
[28] = molecular target: Protein kinase C iota type (Homo sapiens, UniProt P41743); assay type: functional;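 also: measured within a kinome-wide kinase panel, PRKCI as panel member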
[29] = molecular target: Vascular endothelial growth factor receptor 3 (Homo sapiens, UniProt P35916); assay type: functional;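 also: value from a kinome-wide profiling panel, with FLT4 as the panel member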
[30] = molecular target: Rho-associated protein kinase 1 (Homo sapiens, UniProt Q13464); assay type: functional;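 also: measured within a broad kinome-wide panel profiling many kinases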
[31] = molecular target: Serine/threonine-protein kinase DCLK1 (Homo sapiens, UniProt O15075); assay type: functional;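 also: affinity for DCLK1 (listed as DCAMKL1) measured as one member of a kinome-wide kinase profiling panel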
[32] = molecular target: Serine/threonine-protein kinase MRCK alpha (Homo sapiens, UniProt Q5VT25); assay type: functional
[33] = molecular target: Macrophage colony-stimulating factor 1 receptor (Homo sapiens, UniProt P07333); assay type: functional;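 also: value comes from the Navigating the Kinome screening panel, CSF1R member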
[34] = molecular target: Dual specificity tyrosine-phosphorylation-regulated kinase 1A (Homo sapiens, UniProt Q13627); assay type: functional;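 also: measured against DYRK1A as one member of a broad kinome profiling panel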
[35] = molecular target: Tyrosine-protein kinase FRK (Homo sapiens, UniProt P42685); assay type: functional;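 also: FRK tested as one member of a kinome panel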
ORF 73 = ORF 73 (Human herpesvirus 8, UniProt O40947); assay: inhibitors of C-LANA binding to LBS DNA, dose response, biochemical, fluorescence polarization, cherry-picked samples (AID 504725); parameters: species or system Human gammaherpesvirus 8;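 also: fluorescence polarization of a labeled DNA duplex reporting LANA DNA binding; potency is for inhibitors that block LANA binding to the DNA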

Chain of Cell division cycle 7-related protein kinase (O00311 whole entry): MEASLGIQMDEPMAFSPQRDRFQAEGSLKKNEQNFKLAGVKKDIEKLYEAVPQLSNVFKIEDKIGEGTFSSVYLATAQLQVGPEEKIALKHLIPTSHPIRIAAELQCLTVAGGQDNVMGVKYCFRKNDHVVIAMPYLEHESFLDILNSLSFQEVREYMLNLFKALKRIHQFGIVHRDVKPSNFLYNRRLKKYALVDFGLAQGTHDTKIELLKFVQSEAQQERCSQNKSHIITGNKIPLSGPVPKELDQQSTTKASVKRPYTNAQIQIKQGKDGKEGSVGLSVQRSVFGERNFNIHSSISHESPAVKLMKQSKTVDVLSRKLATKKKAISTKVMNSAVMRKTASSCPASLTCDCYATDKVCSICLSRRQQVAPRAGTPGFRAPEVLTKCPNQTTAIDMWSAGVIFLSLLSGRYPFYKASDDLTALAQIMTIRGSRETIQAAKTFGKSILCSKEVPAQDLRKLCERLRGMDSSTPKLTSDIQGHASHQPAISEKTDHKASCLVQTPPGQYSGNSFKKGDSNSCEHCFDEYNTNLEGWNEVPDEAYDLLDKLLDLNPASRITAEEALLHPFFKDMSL
Chain of Mitogen-activated protein kinase 1 (P28482 whole entry): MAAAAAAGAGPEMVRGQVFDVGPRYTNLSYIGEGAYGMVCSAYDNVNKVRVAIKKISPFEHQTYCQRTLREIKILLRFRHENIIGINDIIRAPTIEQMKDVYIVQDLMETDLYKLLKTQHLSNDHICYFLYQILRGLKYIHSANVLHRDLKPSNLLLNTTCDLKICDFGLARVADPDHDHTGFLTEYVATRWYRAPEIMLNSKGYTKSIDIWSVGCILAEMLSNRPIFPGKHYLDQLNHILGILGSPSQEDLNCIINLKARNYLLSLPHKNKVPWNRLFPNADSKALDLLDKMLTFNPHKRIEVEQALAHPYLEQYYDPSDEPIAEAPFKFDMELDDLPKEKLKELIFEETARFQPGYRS
Chain of Serine/threonine-protein kinase D2 (Q9BZL6 whole entry): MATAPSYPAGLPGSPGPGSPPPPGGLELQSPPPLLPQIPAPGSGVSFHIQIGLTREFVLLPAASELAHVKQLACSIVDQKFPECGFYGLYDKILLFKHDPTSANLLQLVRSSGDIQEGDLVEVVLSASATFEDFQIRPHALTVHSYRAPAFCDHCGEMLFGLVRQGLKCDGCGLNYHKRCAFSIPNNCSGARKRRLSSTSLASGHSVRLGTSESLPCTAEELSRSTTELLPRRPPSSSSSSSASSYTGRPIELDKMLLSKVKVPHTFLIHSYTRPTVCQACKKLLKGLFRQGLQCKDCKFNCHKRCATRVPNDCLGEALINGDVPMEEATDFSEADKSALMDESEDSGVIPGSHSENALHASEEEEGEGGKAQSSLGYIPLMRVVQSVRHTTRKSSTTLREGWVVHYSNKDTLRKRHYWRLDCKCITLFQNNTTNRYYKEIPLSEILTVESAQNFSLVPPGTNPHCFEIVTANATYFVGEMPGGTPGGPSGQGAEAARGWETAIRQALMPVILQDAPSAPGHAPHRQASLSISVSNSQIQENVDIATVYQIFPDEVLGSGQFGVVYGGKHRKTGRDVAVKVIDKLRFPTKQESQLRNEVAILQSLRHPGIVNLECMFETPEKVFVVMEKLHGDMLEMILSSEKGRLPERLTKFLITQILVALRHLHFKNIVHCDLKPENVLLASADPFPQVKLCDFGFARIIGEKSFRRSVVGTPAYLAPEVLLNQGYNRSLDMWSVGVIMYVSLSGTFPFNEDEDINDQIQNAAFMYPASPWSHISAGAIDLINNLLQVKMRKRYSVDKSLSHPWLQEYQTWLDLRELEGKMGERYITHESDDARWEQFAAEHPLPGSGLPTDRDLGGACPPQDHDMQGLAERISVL
Chain of Tyrosine-protein kinase JAK2 (O60674 whole entry): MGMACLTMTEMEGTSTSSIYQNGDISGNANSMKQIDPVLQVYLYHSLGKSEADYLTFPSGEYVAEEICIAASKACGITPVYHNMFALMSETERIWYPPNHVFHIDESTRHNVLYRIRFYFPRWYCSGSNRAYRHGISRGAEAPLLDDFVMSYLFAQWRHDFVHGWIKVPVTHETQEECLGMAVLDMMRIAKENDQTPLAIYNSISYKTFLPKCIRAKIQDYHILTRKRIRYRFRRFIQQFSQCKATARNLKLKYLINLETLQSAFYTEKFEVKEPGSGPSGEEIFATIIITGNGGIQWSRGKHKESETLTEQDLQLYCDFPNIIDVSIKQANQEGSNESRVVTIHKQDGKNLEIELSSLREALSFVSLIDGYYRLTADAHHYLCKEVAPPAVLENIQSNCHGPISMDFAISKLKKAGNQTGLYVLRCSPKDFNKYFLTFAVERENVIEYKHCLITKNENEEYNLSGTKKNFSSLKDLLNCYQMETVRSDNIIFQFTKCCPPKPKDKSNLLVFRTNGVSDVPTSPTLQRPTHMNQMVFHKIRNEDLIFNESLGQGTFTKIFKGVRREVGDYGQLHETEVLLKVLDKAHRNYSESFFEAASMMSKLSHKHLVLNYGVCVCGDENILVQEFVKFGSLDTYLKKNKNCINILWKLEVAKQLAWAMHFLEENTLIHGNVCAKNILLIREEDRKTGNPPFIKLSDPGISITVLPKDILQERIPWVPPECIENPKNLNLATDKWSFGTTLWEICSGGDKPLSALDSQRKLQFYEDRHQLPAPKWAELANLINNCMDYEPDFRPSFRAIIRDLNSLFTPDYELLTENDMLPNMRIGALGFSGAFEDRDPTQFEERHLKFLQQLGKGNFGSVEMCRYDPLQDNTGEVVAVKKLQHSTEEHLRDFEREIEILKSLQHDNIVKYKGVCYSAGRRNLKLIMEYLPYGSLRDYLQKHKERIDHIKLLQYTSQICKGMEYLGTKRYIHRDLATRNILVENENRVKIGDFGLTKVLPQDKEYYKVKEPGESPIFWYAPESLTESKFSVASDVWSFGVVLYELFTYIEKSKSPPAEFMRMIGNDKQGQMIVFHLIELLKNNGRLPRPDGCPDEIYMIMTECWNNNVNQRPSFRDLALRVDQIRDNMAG
Chain of Ribosomal protein S6 kinase alpha-5 (O75582 whole entry): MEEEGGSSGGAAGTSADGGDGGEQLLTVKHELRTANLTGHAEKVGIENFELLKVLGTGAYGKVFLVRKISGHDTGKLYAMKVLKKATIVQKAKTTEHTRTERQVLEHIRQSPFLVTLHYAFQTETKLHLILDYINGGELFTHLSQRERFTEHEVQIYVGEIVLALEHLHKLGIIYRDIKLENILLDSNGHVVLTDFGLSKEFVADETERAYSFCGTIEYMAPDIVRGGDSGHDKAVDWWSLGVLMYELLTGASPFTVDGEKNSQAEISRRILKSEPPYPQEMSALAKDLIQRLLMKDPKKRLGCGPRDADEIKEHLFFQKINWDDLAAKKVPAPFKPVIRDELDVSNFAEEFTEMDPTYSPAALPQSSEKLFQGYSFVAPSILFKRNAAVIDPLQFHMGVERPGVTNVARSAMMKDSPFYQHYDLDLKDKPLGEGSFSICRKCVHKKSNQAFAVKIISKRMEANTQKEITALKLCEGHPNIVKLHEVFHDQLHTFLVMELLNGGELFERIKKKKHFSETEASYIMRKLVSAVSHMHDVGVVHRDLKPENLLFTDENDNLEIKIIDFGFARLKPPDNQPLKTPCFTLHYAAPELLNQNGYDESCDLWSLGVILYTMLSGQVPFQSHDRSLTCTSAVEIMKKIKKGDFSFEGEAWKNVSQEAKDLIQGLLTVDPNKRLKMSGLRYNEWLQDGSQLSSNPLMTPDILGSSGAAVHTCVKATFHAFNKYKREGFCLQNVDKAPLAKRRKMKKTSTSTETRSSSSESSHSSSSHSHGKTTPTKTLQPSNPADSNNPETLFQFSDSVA
Chain of Casein kinase II subunit alpha (P68400 whole entry): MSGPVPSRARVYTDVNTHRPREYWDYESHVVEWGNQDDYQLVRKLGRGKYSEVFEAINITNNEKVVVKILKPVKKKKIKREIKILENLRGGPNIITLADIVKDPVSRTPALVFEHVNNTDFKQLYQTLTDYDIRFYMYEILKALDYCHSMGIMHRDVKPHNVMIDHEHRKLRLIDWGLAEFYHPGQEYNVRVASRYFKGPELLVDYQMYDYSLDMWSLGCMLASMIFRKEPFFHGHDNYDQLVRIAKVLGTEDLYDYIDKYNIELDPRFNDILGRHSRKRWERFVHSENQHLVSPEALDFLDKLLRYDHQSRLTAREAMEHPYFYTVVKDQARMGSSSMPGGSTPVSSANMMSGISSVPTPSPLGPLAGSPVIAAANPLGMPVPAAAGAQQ
Chain of Calcium/calmodulin-dependent protein kinase type II subunit gamma (Q13555 whole entry): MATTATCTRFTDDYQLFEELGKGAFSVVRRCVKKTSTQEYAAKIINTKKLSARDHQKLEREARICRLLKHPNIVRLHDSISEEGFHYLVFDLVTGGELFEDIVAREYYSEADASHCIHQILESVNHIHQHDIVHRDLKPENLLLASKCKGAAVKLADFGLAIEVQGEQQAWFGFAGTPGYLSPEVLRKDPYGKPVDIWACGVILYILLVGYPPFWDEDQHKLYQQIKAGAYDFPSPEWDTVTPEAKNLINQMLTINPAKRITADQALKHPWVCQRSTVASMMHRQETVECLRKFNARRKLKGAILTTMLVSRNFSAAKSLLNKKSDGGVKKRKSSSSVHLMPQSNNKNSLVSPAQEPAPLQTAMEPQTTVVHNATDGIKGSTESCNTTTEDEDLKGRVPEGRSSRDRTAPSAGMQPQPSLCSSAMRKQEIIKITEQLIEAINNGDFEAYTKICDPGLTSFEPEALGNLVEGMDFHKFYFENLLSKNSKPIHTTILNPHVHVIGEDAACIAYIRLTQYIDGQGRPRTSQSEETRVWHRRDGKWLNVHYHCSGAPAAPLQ
Chain of Serine/threonine-protein kinase pim-1 (P11309 whole entry): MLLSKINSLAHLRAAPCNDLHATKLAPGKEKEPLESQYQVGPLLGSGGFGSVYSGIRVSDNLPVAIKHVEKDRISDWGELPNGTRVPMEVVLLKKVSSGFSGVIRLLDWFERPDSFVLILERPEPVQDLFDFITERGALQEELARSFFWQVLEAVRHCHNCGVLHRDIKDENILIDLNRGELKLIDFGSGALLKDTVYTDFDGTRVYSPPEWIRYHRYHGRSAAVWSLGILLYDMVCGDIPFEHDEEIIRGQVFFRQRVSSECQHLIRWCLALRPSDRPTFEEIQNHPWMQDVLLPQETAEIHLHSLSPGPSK

Which IC50 [1] does the source give for `CC(=O)N(/N=C1\Sc2ccccc2C1=O)c1ccccc1C` here?
Its IC50 is 8.34 µM (active).

What about the IC50 (Caspase-3) of the same compound?
Its IC50 is 42.2 µM (active).

With `CCCC(=O)NC(c1ccc(Cl)cc1)c1ccc2cccnc2c1O` (centres undefined) as the compound, how does the EC50 [2] read?
The EC50 was 18 µM (active).

And the EC50 [3]?
Its EC50 is 0.365 µM (active).

What about the EC50 [4] of the same compound?
Its EC50 is > 285 µM (inactive).

And the AC50 (INS1)?
The AC50 was 0.458 µM (active).

And the EC50 [5]?
Its EC50 is > 160 µM (inactive).

With `Cc1ccc(-n2sc3ccccc3c2=O)cc1` as the compound, how does the EC50 [6] read?
The EC50 was 23.3 µM (active).

What about the CC50 [7] of the same compound?
The CC50 was 18.6 µM (active).

And the EC50 [8]?
Its EC50 is > 91.2 µM (inactive).

For `Cc1cccc(NC(=O)Nc2ccc3c(c2)CCc2sc4ncnc(N)c4c2-3)c1`, which Ki [9] is on record?
Its Ki is > 1.58 µM (inactive).

What about the Ki [10] of the same compound?
Its Ki is > 2 µM (inactive).

What about the Ki [11] of the same compound?
Its Ki is 0.251 µM (active).

What about the Ki [12] of the same compound?
The Ki was > 10 µM (inactive).

And the Ki [13]?
Its Ki is > 6.31 µM (inactive).

And the Ki [14]?
Its Ki is 1.58 µM (active).

What about the Ki [15] of the same compound?
The Ki was > 7.94 µM (inactive).

And the Ki [16]?
The Ki was 3.98 µM (active).

What about the Ki [17] of the same compound?
Its Ki is > 1.26 µM (inactive).

And the Ki [18]?
Its Ki is > 6.31 µM (inactive).

What about the Ki [19] of the same compound?
The Ki was > 5.01 µM (inactive).

And the Ki [20]?
The Ki was > 2 µM (inactive).

What about the Ki [21] of the same compound?
The Ki was 0.126 µM (active).

What about the Ki [22] of the same compound?
The Ki was 3.98 µM (active).

What about the Ki [23] of the same compound?
Its Ki is 1.26 µM (active).

And the Ki [24]?
The Ki was > 7.94 µM (inactive).

What about the Ki [25] of the same compound?
Its Ki is > 2 µM (inactive).

And the Ki [26]?
The Ki was 2 µM (active).

What about the Ki (Ephrin type-A receptor 2) of the same compound?
The Ki was 0.0316 µM (active).

What about the Ki [27] of the same compound?
Its Ki is > 7.94 µM (inactive).

And the Ki [28]?
Its Ki is > 5.01 µM (inactive).

And the Ki [29]?
The Ki was 0.158 µM (active).

And the Ki [30]?
Its Ki is 0.794 µM (active).

And the Ki [31]?
The Ki was > 10 µM (inactive).

And the Ki [32]?
The Ki was > 10 µM (inactive).

And the Ki [33]?
Its Ki is > 2.51 µM (inactive).

What about the Ki [34] of the same compound?
Its Ki is 0.316 µM (active).

What about the Ki [35] of the same compound?
The Ki was 0.2 µM (active).

With `N/C(=N\N=C/c1ccc(-c2ccc(O)c(C(=O)O)c2)o1)N[N+](=O)[O-]` as the compound, how does the AC50 (ORF 73) read?
The AC50 was 111 µM (active).
